Test results reported in patent US20260317356A1, “SMALL MOLECULE MODULATORS OF OGG1” (AZKARRA THERAPEUTICS, INC., priority 2023, published 2026).
pKd: −log10 of the molar value.

Legend:
nLucOGG1 in HeLa cells = biological target: T1, nLucOGG1 in HeLa cells (Homo sapiens, UniProt O15527); assay: Cellular Thermal Shift Assay to measure compound affinity for nLucOGG1 in HeLa cells (CETSA DTm); assay type: cell-based; settings: 10 μM compound, 37° C. 60 min, Tm vs DMSO control
T1 construct: thermal shift read by NanoGlo luminescence
T1 sequence (O15527 whole entry): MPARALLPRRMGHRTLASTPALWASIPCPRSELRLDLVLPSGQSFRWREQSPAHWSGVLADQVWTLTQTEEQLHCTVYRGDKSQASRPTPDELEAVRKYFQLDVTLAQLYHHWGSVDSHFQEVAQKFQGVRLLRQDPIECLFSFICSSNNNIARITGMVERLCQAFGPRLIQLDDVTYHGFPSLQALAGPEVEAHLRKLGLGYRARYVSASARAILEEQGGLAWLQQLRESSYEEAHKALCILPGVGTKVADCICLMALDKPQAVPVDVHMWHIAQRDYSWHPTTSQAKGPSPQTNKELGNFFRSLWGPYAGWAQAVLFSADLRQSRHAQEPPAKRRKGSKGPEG
Method in brief: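 HeLa cells transiently nucleofected with N-terminal nLuc-OGG1a, used 48 h later; 25 k cells/well incubated with 10 μM compound or DMSO vehicle 60 min at 37° C, then heated 3 min across a 12-point 37-70° C gradient. NanoGlo luminescence normalized to 37° C, Boltzmann sigmoidal fit gives Tm; delta Tm relative to vehicle.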

hOGG1 = hOGG1 (Homo sapiens, UniProt O15527); assay: Surface Plasma Resonance with hOGG1 to measure compound affinity (OGG1 SPR Kd); assay type: binding; set-up: Protein His-hOGG1 (12-323) was prepared; settings: Biacore T-200, immobilized his-tagged OGG1; pH 7.4; 2% DMSO; single-cycle kinetics
hOGG1, sequence (O15527 12-323): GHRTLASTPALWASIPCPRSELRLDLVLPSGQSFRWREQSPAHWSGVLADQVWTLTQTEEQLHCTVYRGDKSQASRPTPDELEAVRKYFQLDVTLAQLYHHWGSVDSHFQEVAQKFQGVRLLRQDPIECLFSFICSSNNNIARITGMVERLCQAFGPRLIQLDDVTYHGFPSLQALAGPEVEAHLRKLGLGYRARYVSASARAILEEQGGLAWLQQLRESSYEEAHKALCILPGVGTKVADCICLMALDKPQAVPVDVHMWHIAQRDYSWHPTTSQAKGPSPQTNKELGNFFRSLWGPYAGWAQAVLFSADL
Method in brief: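 His-tagged recombinant OGG1 was captured on an NTA chip via Ni²⁺ (~2500 RU final). Single-cycle kinetics used five 3-fold compound concentrations (top 750 or 1500 nM) in 20 mM HEPES pH 7.4, 150 mM NaCl, 0.5 mM TCEP, 0.005% Tween-20, 2% DMSO; 45 s contact, 600 s dissociation. Kd came from steady-state and 1:1 kinetic fits.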

Structure (SMILES)	ΔTm at 10 µM (nLucOGG1 in HeLa cells)	pKd (hOGG1)
COc1cc(NC(=O)[C@H]2CC[C@@H](N3Cc4c(C)cc(-c5nnco5)cc4NC3=O)CC2)ccc1C [Example 92, (1s,4s)-N-(3-methoxy-4-methylphenyl)-4-(5-methyl-7-(1,3,4-oxadiazol-2-yl)-2-oxo-1,2-dihydroquinazolin-3(4H)-yl)cyclohexanecarboxamide]	8 to 10 °C	7.00 to 8.00
COc1ccc(NC(=O)[C@H]2CC[C@@H](N3Cc4c(C)ccnc4NC3=O)CC2)cc1Cl [Example 14, (1s,4s)-N-(3-Chloro-4-methoxyphenyl)-4-(5-methyl-2-oxo-1,2-dihydropyrido[2,3-d]pyrimidin-3(4H)-yl)cyclohexanecarboxamide]	6 to 8 °C	7.00 to 8.00
COc1ccc(NC(=O)[C@H]2CC[C@@H](N3Cc4c(C)ccc(OC)c4NC3=O)CC2)cc1C [Example 4, (1s,4s)-N-(3-Methyl-4-methoxyphenyl)-4-(8-methoxy-5-methyl-2-oxo-1,2-dihydroquinazolin-3(4H)-yl)cyclohexanecarboxamide]	6 to 8 °C	7.00 to 8.00
COc1ccc(NC(=O)[C@H]2CC[C@@H](N3Cc4c(C)ccc(OC)c4NC3=O)CC2)cc1Cl [Example 3, (1s,4s)-N-(3-Chloro-4-methoxyphenyl)-4-(8-methoxy-5-methyl-2-oxo-1,2-dihydroquinazolin-3(4H)-yl)cyclohexanecarboxamide]	6 to 8 °C	7.00 to 8.00
COc1cc(NC(=O)[C@H]2CC[C@@H](N3Cc4c(C)ccc(OC5CNC5)c4NC3=O)CC2)ccc1C [Example 45]	8 to 10 °C	7.00 to 8.00

Now from value to compound:

ΔTm at 10 µM (nLucOGG1 in HeLa cells)	pKd (hOGG1)	Structure (SMILES)
8 to 10 °C	7.00 to 8.00	COc1cc(NC(=O)[C@H]2CC[C@@H](N3Cc4c(C)ccc(C#N)c4NC3=O)CC2)ccc1C [Example 59, (1s,4s)-4-(8-cyano-5-methyl-2-oxo-1,2-dihydroquinazolin-3(4H)-yl)-N-(3-methoxy-4-methylphenyl)cyclohexanecarboxamide]
6 to 8 °C	7.00 to 8.00	COc1cc(NC(=O)[C@H]2CC[C@@H](N3Cc4c(C)cc(N(C)C)cc4C3=O)CC2)ccc1C [Example 135, (1s,4s)-4-(6-(Dimethylamino)-4-methyl-1-oxoisoindolin-2-yl)-N-(3-methoxy-4-methylphenyl)cyclohexane-1-carboxamide]
